Reference: a melting point compilation (Tetko et al.; mined from patent text by program, amines drawn as free bases though some values may be those of a salt)

SMILES | melting point
NC1=Nc2ccccc2CC1 | 135 to 136 °C
O=C(O)COc1cc2c(c(Cl)c1Cl)C(=O)C(Cl)(C1CCCCC1)C2 (configuration not stated) | 142 to 145 °C
Cn1cc(C(=O)O)c(=O)c2cc(F)c(Cl)cc21 | 342 °C
CCCCCNC(=O)N(C)c1cccc(-c2ccc(C=C(OC)C(=O)O)cc2)c1 | 144 °C
COc1ccc(C(=O)CCC(=O)O)c(Cl)c1Cl | 142 to 144 °C
COC(=O)c1cc2c3cc([N+](=O)[O-])ccc3n(C)c2s1 | 269 to 271 °C
CC12CCC3c4ccc(C(=O)O)cc4CCC3C1CCC2C(=O)C1CCCCC1 (configuration not stated) | 280 to 285 °C
CCCCCCCCCCCCCCC[C@@H](O)[C@@H](NCc1ccccc1)C(=O)O | 132 °C
Cc1cc(Cc2cc(C)c(N=C=O)c(C)c2)cc(C)c1N=C=O | 130 to 131 °C
COc1cc(OCc2ccccn2)ccc1/C=C/c1cc(/C=C/c2ccc3[nH]nnc3c2)n[nH]1 | 113 to 120 °C
O=C(NCc1ccc(C=NNO)cc1)C1Cc2ccccc2N1S(=O)(=O)c1ccc(-c2cccc(C(F)(F)F)c2)cc1 (configuration not stated) | 110 to 115 °C
Cc1ccnc2c(Oc3ccc(N)cc3)cccc12 | 157 to 159 °C
N#CSc1nc(Nc2ccc(Cl)cc2)ncc1[N+](=O)[O-] | 240 to 242 °C
CC1COCc2nc3c(N)nc4ccc(OCc5ccccc5)cc4c3n21 (configuration not stated) | 100 to 120 °C
Nc1ccc(C(c2ccccc2F)n2ccnc2)cc1[N+](=O)[O-] (configuration not stated) | 176 °C
Cc1ccc(S(=O)(=O)N(C)c2ccccc2[N+](=O)[O-])cc1 | 132 °C
C=Cc1c(C(=O)OC)nc(-c2ccc(Cl)cc2)c(F)c1N | 81 to 83 °C
CNC(=S)Nc1ccc(NNC=O)cc1 | 176 to 178 °C
CNC(=O)Oc1ccc(SC)c2c1CCCC2 | 146 to 147 °C
CCOC(=O)/C=C/c1ccc(OCCN2CCCC2=O)cc1OCc1ccccc1 | 94 to 97 °C
COc1ccc(N2CCN(c3c(C)c(C)c4c(c3C)C(N3CCc5ccccc53)C(C)(C)O4)CC2)cc1 (configuration not stated) | 166 to 168 °C
COC(=O)C=Cc1ccc2c(ccn2S(=O)(=O)c2ccccc2)c1 | 134 to 136 °C
COc1ccccc1N1CCN(CC2(C)N=C(c3ccccc3)NC2=O)CC1 (configuration not stated) | 86 to 89 °C
Nc1cnc(-c2cc(Cl)cc(Cl)c2Cl)c(N)n1 | 178 to 180 °C
CC1CN(c2c(F)c(N)c3c(=O)c(C(=O)O)cn(C4CC4)c3c2F)CCN1 (configuration not stated) | 251 to 253 °C
NC(=O)COc1ccccc1C(=O)Nc1ccc(C(=O)N2CCCCc3ccccc32)cc1 | 198 to 199 °C

SMILES | melting point
CS(=O)(=O)OC[C@H]1CCn2c(cc3ccccc32)C1 | 114 to 115 °C
Fc1cc(Cl)ccc1NC(=S)C1CCCC=C1N1CCOCC1 (configuration not stated) | 86 to 88 °C
O=C(CCl)c1cccn1C(c1ccccc1)c1ccccc1F (configuration not stated) | 86 to 91 °C
CC(=O)Oc1cc2c(cc1OC(C)=O)OCC(c1ccccc1)C2 (configuration not stated) | 102 °C
O=C(O)COc1ccc2c(-c3ccoc3)noc2c1Cl | 225 to 227 °C
NC(=O)CC12CC3CC(CC(C3)C1)C2 | 174 °C
Cc1sc(N2CCCCC2)nc1CCl | 79 to 80 °C
CC1CCCN(C[C@@H]2COc3ccc(S(C)(=O)=O)cc3O2)C1 (some centres not stated) | 159 °C
O=C(O)c1ccc(OC2=C3N=C4CCCCC4=C3C(Cc3ccc(Cl)cc3)C=C2)o1 (configuration not stated) | 162 to 164 °C
CN(c1cccc2cc(-c3ncc(CN4CCS(=O)(=O)CC4)s3)[nH]c12)S(=O)(=O)c1cccs1 | 225 to 226 °C
OC(c1ccccc1)C1CCN(CCCc2ccccc2)CC1 (configuration not stated) | 87 to 88 °C
O=C1N(Cc2ncc(F)cc2F)c2ccccc2C12COc1cc3c(cc12)OCCO3 (configuration not stated) | 220 to 222 °C
CCC1CC2=CC(=O)CCC2C2CCC3(C)C(O)CCC3C12 (configuration not stated) | 142 to 144 °C
CCc1c(OCc2ccccc2)nc(OCc2ccccc2)nc1C(C#N)c1cc(C)cc(C#N)c1 (configuration not stated) | 139 to 141 °C
CSc1ccccc1C1CCN(CCCCNC(=O)c2ccc(-c3ccc(C(F)(F)F)cc3)cc2)CC1 | 191 to 192 °C
Cc1oc(-c2ccccc2)nc1COc1cncc(COc2ccccc2CC(=O)O)c1 | 207 to 208 °C
CCOC(=O)C1=Cc2cc(Cl)cc(-c3ccccc3)c2OC1C(F)(F)F (configuration not stated) | 196 to 198 °C
CCOC(=O)NCC(C)C(NC(=O)OCC)NC(=O)OCC (configuration not stated) | 138 to 140 °C
CCOCc1nc2c(N)nc3cccnc3c2n1CCCCCC(N)=O | 215 to 217 °C
CC(C)(C)c1ccc(O)c(C=NO)c1 | 116 to 118 °C
COc1ccc(S(=O)(=O)NC(C)c2ccccc2-c2cc(F)ccc2F)cc1 (configuration not stated) | 143 to 144 °C
CC(C)(C)c1ccc(CCOc2ccnc3c(F)cccc23)cc1 | 81 to 82 °C
CCSC1=C(NC(=O)CN2CCN(CCSc3nc4c(C)c(Cl)cc(C(C)C)c4o3)CC2)C=CC(C)(SCC)N1 (configuration not stated) | 120 to 122 °C
OC(Cc1ccnc2ccccc12)C(Cl)(Cl)Cl (configuration not stated) | 190 to 192 °C
CC(C)C[C@H](CC(N)=O)CC(=O)O | 132 to 135 °C
CC(C)c1ccc2c(c1)c(Sc1ccccc1)c(C(C)C(=O)O)n2Cc1ccc(Cl)cc1 (configuration not stated) | 181 to 182 °C

SMILES | melting point
Nc1ccc(C(=S)N2CCCCC2)cc1 | 162 to 164 °C
O=C(O)Cn1cc(Cc2nc3c(F)c(F)cc(F)c3s2)c2cccc(Br)c21 | 228 to 230 °C
Cc1c(C(=O)N(C)Cc2ccc3c(Br)c(OCC#N)ccc3c2)oc2ccccc12 | 35 to 38 °C
CCC(CC)c1ccc(C(F)(F)F)c2[nH]c(=O)n(C)c12 | 205 to 206 °C
COC(=O)C[C@H](NC(=O)OCc1ccccc1)C(=O)O | 55 to 60 °C
CCOC(=O)C1CCN(c2ccc(/C=C/C(=O)O)cc2)CC1 | 212 °C
O=C(NCCCc1ccccc1)Nc1ccccn1 | 127 to 128 °C
CC(C)OC(=O)Nc1cccc(-c2ccnc3c(C(=O)c4ccco4)cnn23)c1 | 140 to 143 °C
O=C(COc1ccc2c(-c3ccccc3F)noc2c1Cl)NO | 151 °C
C#CCn1cc(CO)cc1C(=O)OC | 77 °C
O=C1c2ccccc2C(=O)N1CC(=C(Br)Br)c1ccccc1 | 154 to 155 °C
CCCN(CCC)c1c(CC)nn2c(-c3ccc(N(C)C)cc3C(F)(F)F)cccc12 | 69.1 to 79.8 °C
CN(Cc1ccccc1)c1nc(N2CCC(N(C)C)CC2)nc2c(N3CCOCC3)ncnc12 | 122 °C
N#Cc1ccc2[nH]cc(C3CCC4(CC3)OCCO4)c2c1 | 153 to 155 °C
CCn1cnc2c(Nc3cccc(F)c3)nc(Cl)nc21 | 136 °C
CS(=O)(=O)c1ccc(-c2cnn(-c3ccc(F)cc3)c(=O)c2Oc2ccc(F)cc2)cc1 | 83 to 85 °C
COC(=O)c1ccccc1C(=O)Nc1cc(C(F)(F)C(F)(F)F)on1 | 97 to 100 °C
Cc1c(Cc2ccccc2)c(=O)n(C2CCCC2)c2nc(Nc3ccc(N4CCNCC4)cc3)ncc12 | 114 °C
COc1ccccc1[C@@]1(O)[C@H](O)CC(c2ccccc2)(c2ccccc2)[C@@H]2CN(C(=O)Cc3ccc(N)cc3)C[C@@H]21 (racemic) | 188 °C
Cc1cc(NCCO)c([N+](=O)[O-])cc1O | 174 °C
CCOc1ccc(-c2ccc3c(c2)C=C(C(=O)OC)CCN3)cc1 | 157 to 158 °C
C[C@H](C(=O)NC[C@H](COC(=O)C(C)(C)C)Cc1ccccc1)c1ccc(NS(C)(=O)=O)c(F)c1 | 40 to 42 °C
CCOC(=O)Cc1c(C)n(Cc2cccc(C(F)(F)F)c2)c2ccc(OC)cc12 | 95 to 97 °C
Cn1cc(C(=O)NCc2ccc(C#N)cc2)c(=O)c2cc(C#CCO)ccc21 | 230 to 232 °C
NS(=O)(=O)c1ccc(-c2cccc(-c3nc(-c4ccc(Cl)c(Cl)c4)cc(C(F)(F)F)n3)c2)s1 | 203 °C
CC(C)(C)c1ccc(C2(C(N)=O)CC2)cc1 | 178 to 180 °C

SMILES | melting point
CC(C)OC(=O)N1CC(=O)Nc2ccc(Br)cc21 | 159 to 161 °C
COc1cc(-c2ccccc2)c(OCC(=O)O)c(-c2ccccc2)c1 | 143 to 145 °C
Nc1cc(Oc2ccc3c(C(=O)Nc4cccc(C(F)(F)F)c4)nccc3c2)ncn1 | 197 to 200 °C
CC(=O)Nc1cnc(-c2cc(Cl)cc(Cl)c2Cl)c(N)n1 | 200 to 203 °C
CN1CCC(c2c(O)cc(O)c3c(=O)cc(Sc4ccccc4Cl)oc23)C(O)C1 (configuration not stated) | 110 °C
CCc1cc(C)cc(CC)c1C1C(=O)C2CC(C3OCCCO3)CC2C1=O (configuration not stated) | 100 to 101 °C
CC1SC(c2cccnc2)NC1=O (configuration not stated) | 110 °C
CCCc1[nH]c2cc(C(N)=O)ccc2c1C(=O)C1CCCCC1 | 245 to 247 °C
Cc1c(C(=O)O)cnn1-c1ccc(Cl)c(Cl)c1 | 188 °C
COc1cc2nc3c(c(-c4cc(OC)c(O)c(OC)c4)c2cc1OC)C(=O)OC3 | 247 to 248 °C
CCC1c2cccn2-c2ccc(Br)cc2N1S(=O)(=O)c1ccc(O)c(C)c1 (configuration not stated) | 191 to 193 °C
O=c1c2c(Cc3ccccc3)n[nH]c2c2cccnc2n1-c1cccc(C(F)(F)F)c1 | 226 to 228 °C
CP(C)(=O)CCCOC(=O)c1cccnc1Nc1cccc(C(F)(F)F)c1 | 165 °C
Cc1cn2cc(Cl)ccc2n1 | 94 to 96 °C
Cc1cc(COc2cccc3c2CN(C2CCC(=O)NC2=O)C3=O)on1 (configuration not stated) | 278 to 280 °C
O=C(O)C1CCC(Nc2nccc(-n3nnc4c(I)cccc43)n2)CC1 (configuration not stated) | 252 to 254 °C
CNC(=O)c1ccc(Nc2nc(OCC3CCCCC3)c3nc[nH]c3n2)cc1 | 139 to 142 °C
CC(C)c1cc(CCC(=O)O)n(Cc2ccc(C(F)(F)F)cc2Cl)n1 | 117 to 119 °C
CC(C)N(c1nc(Cl)nc(N2C(C)(C)CC3(CC2(C)C)OCCO3)n1)C(C)C | 179 to 184 °C
N#CCc1nc(C(F)(F)F)ccc1C(=O)O | 152 to 153 °C
O=S(=O)(c1ccccc1)n1ccc2c(CBr)cccc21 | 127 to 128 °C
CC(=O)Nc1nn(C)c2nc3n(c(=O)c12)CCS3 | 250 to 252 °C
CC1(C)c2ccccc2C(C)(C)C1(S)CCO | 85 to 87 °C
CC(C(N)=O)c1ccc(Oc2ccccc2F)cc1 (configuration not stated) | 106 to 108 °C
